What was measured:
[1] = Degradation (self-decay) of PAA solution over time; assay type: physicochemical; conditions: for degradation rate of non-equilibrium PAA: 2% concentration
Text: Sometimes it is desirable to remove the very strong odor of the final equilibrium PAA product, such as when it is used indoors. Anti-microbial efficacy is roughly the same whether the PAA is in an acidic or alkaline state. The two most significant differences are: 1) alkaline PAA has no odor and 2) alkaline PAA self-degrades very rapidly when the pH is above 8, usually at 5-10% per hour. In situations where the PAA is to be used within minutes or hours of when it is made alkaline, the addition of an alkali earth metal in solution with water can be used alone or with more water to both dilute the PAA and raise its pH to any desired level, eliminating its odor. At this point other materials may be added to the alkaline PAA such as detergents, fragrance additives and even foaming agents.
The system of the present invention is designed such that the PAA is produced in a unique manner which differs substantially from prior art processes, the end product being inherently not at equilibrium. At 2% concentration, it degrades at about 6% per day if the pH is below 7 (acidic) and at 5-10% per hour when the pH is above 7. Use of a stabilizer will not halt that decay. Accordingly, the system herein disclosed is designed to generate PAA to be used within minutes or hours of when it is made, thereby eliminating the need for a stabilizer used by every other PAA manufacturer in the world.

[2] = Dissolution of triacetin in water; assay type: physicochemical; conditions: room temperature
Text: A second method involves pre-dissolving traicetin in water outside the generator using time and mixing to eliminate the strands and globules. This approach requires a significant amount of extra water to be supplied to the generator, since at room temperature, the maximum amount of triacetin that can be dissolved is only approximately 4%.

| SMILES | degradation rate of non-equilibrium PAA ([1]; pH above 7) | degradation rate of non-equilibrium PAA ([1]; pH below 7 (acidic)) | self-degradation rate of alkaline PAA ([1]; equilibrium PAA made alkaline, pH above 8) | maximum amount of triacetin that can be dissolved in water [2] |
| --- | --- | --- | --- | --- |
| CC(=O)OO [PAA, peracetic acid] | 5-10 % per hour | about 6 % per day | 5-10 % per hour | – |
| CC(=O)OCC(COC(C)=O)OC(C)=O [triacetin, 1,2,3-triacetoxypropane] | – | – | – | approximately 4% |

Source: patent publication US20180042231A1, “Systems and Methods for the Continuous On-Site Production of Peroxycarboxcylic Acid Solutions” (Eltron Water Systems, LLC, priority 2016, published 2018)
